One test has as its system CA33 (a-Ab). Nature of the test: MST epitope mapping: nested NDPK-A peptides with a-Ab. In kind it is binding. Here is the method:
To define the binding site of a-Ab on NDPK, a nested series of peptides were generated covering human NDPK-A and interaction of each peptide with a-Ab was evaluated by Microscale Thermophoresis (MST) (FIG. 4D). MST is a technology for the interaction analysis of biomolecules. MST is the directed movement of particles in a microscopic temperature gradient. Any change of the hydration shell of biomolecules due to changes in their structure/conformation results in a relative change of the movement along the temperature gradient and is used to determine binding affinities. MST allows measurement of interactions directly in solution without the need of immobilization to a surface (immobilization-free technology).

Test [1] has as its system INS1 cells. Briefly: Glucose-stimulated insulin secretion (GSIS), INS1 cells. In kind it is cell-based, rat. Here is the method: This finding was recapitulated in both primary human islets from multiple non-diabetic donors (FIG. 6B), as well as INS1 cells (FIG. 6C). Human islets from review board approved healthy donors were isolated using the Edmonton protocol and provided by the IsletCore and Clinical Islet Laboratory (University of Alberta, Canada). Donors with a BMI<25 and HbA1c<6.0% were used for experiments. Islets were hand-picked three times and cultured at 37° C. in RPMI media with 10% FBS and 1% Penicillin/Streptomycin overnight before use. For INS1 cells, cells were plated at 8000 cells/well in 96-well plates and incubated overnight prior to experimentation. Insulin secretion assay was performed as above using 200 μl/well for each treatment. Cells were lysed using 80 μl ultrapure water and flash freezing. For siRNA experiments, INS1 cells were allowed to reach confluency before transfection of siRNA (Horizon Discovery; L-090381-02-0005) using Lipofectamine 3000 (Thermo Fischer; L3000015) according to manufacturer protocol for 48 hours prior to assays.
As additional controls, it was explored whether lipid binding was required for FABP4 action. […] FABP4 inhibitor studies were performed using BMS-309403 (10 nM; Sigma #BM0015).
To further elucidate the role of purinergic receptors in this signaling process, a potent and selective P2Y1 inhibitor, MRS2179 (Baurand et al., 2001) was utilized. Cells were pre-treated for P2Y1 inhibitor (100 nM; MRS2179, Tocris #0900) during the pre-incubation period.
To confirm activity of this inhibitor, INS1 cells were treated with increasing concentrations of ADP in the presence or absence of MRS2179. […] This supports the hypothesis that the ADP produced by the NDPK-ADK complex signals through the P2Y1 receptor, treatment of INS1 cells with MRS2179 abolished the increase in GSIS associated with addition of NDPK-ADK, with no effect in the presence of NDPK-ADK/FABP4, consistent with the receptor being inhibited by ATP under these conditions (FIG. 6L). […] Treatment of primary mouse islets with H118N NDPK and WT ADK had no effect on GSIS, confirming the requirement of NDPK kinase activity for the biology (FIG. 6N). Additionally, it was modeled that the inhibitory effect of the NDPK-ADK/FABP4 complex on GSIS is dependent on the production of ATP by ADK, as activated by the presence of FABP4. To test this, an ADK inhibitor was utilized. Cells were pre-treated with ADK inhibitor (2 nM; Santa Cruz #sc-202900) during the pre-incubation period.

The target of the next test is T1, recombinant ADK (Homo sapiens, UniProt P55263).
T1 construct: purchased Novus Biologicals or R&D Systems NBP1-44382 or 8024-AK-025
T1 sequence (P55263 whole entry): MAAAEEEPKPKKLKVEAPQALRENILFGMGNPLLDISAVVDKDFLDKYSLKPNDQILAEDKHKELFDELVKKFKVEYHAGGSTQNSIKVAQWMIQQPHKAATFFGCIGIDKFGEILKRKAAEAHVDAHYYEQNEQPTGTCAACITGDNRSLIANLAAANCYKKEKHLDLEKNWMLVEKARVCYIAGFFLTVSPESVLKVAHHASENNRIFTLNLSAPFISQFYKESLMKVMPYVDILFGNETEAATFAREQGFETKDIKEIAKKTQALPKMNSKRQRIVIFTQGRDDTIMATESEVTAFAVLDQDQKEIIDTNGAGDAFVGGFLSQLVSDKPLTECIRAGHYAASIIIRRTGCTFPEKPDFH
Briefly: Recombinant kinase activity assay, ADK (Kinase-Glo). In kind it is biochemical. As to conditions: recombinant ADK plus the added component. As for the experimental part:
(§1) An on-bead kinase assay was developed to measure the activity of endogenous NDPK and ADK pulled down from serum using a-Ab or c-Ab conjugated beads. Both NDPK and ADK are bi-directional kinases that will produce ATP or ADP depending on the substrates provided (FIGS. 4B-C). Kinase activity assays were performed in 384-well plates in reaction buffer (PBS with 0.1% BSA, 0.01% F-127, 5 mM MgCl2). Experiments with recombinant proteins were performed at final concentrations of 40 μg/ml for ADK and FABP4, and 20 ug/ml for NDPK, and a reaction volume of 10 μl. Antibodies were used at a final concentration of 80 ug/ml. […] Proteins and substrates were incubated for 1 hr at room temperature, and ADP and ATP production were monitored using ADP-Glo and Kinase-Glo kits, respectively, according the manufacturer instructions (V6930 and V6711 Promega, USA). Luminescence was quantified using a SpectraMax Paradigm plate reader 30 min after the addition of substrate. Consistent with the MS results, ADK activity, as measured by generation of ATP, was specifically observed in samples pulled down with a-Ab but not c-Ab (FIG. 5A). […] To test this possibility, the ATP and ADP generating activity of recombinant ADK was assessed in the presence of the proposed complex components.
(In Kinase-Glo more light means more ATP remaining.)

Test [2] deals with INS1 cells. Nature of the test: Cytosolic calcium flux, Fura-2 AM imaging. Particulars: 20 mM glucose.
Experimental: Cells were pre-treated with P2Y1 activator (0.5 nM; MRS2365 Tocris #2157) during the pre-incubation period. Cells were stimulated with ATP (5 μM; Promega #V915A) or ADP (2.5 μM; Promega #V916A) acutely with the addition of LG and HG KRB during the serial stimulation. Cells were treated with 100 ng/ml recombinant human FABP4 (produced in-house), 200 ng/ml recombinant human ADK (Novus Biologicals, product number NBP1-44382 or R&D Systems, product number 8024-AK-025), or 100 ng/ml recombinant human NDPK-A (Acro Biosystems, product number NM1-H5147) where indicated, for the pre-incubation period, as well as during the glucose stimulation.
Briefly, INS1 cells were plated in imaging disks at 5000 cells/dish and cultured in standard media overnight. Cells were washed with PBS, and incubated in imaging buffer without glucose, with or without calcium containing Fura-2 AM (2 mM; ThermoFisher F1201) for 30 minutes at 37° C. Cells were washed twice with fresh PBS, and placed in lml imaging buffer. Calcium flux was evaluated with the addition of 20 mM glucose, 30 mM KCl, or 1 μM Thapsigargin. Extracellular calcium was added at 1.5 mM. Calcium flux measurements were performed using an epifluorescence system coupled to a Ti-S/L100 inverted microscope L100 with fluorescent light source (X-Cite 120LED System) equipped with Lambda DG-4 Plus for UV ratiometric probes. Excitations at 340 nm and 380 nm were used and an emission of 510 nm. Analysis was performed using ImageJ software. Calcium flux was measured from 50 cells per coverslip.
A further test deals with T2, recombinant NDPK (Homo sapiens, UniProt P15531, H118N).
T2 construct: purchased Acro Biosystems NM1-H5147
T2 sequence (P15531 whole entry H118N): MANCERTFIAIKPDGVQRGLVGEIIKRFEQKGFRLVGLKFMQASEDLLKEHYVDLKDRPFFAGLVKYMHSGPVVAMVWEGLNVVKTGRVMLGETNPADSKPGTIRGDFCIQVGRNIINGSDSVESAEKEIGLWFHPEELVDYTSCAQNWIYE
Briefly: Recombinant kinase activity assay, NDPK (ADP-Glo/Kinase-Glo). In kind it is biochemical. Particulars: kinase activity of NDPK mutant. Here is the method: as §1
(In general: ADP-Glo first removes unused ATP, then detects ADP through luciferase.)

The subject of the next test is primary mouse islets. Nature of the test: Glucose-stimulated insulin secretion (GSIS), mouse islets. In kind it is cell-based. Particulars: primary / WT mouse islets. Here is the method: Primary islet isolation from mice was performed as previously described (Batchuluun et al., 2018; Prentice et al., 2014) and GSIS was assessed following acute treatment with NDPK-ADK in the presence or absence of FABP4. Insulin secretion assays were performed as previously described (Prentice et al., 2014). For primary islets, 20 islets were hand-picked into 1.5 ml tubes, washed twice with Krebs Ringer Buffer (KRB) without glucose, and pre-incubated in 500 μl low glucose (LG; 2.8 mM) KRB for 1 hour at 37° C. KRB was then removed and 250 μl of fresh LG KRB added. Islets were incubated for 20 minutes at 37° C. Supernatant was collected and 250 μl high glucose (HG; 16.7 mM) KRB added. Islets were incubated for 20 minutes at 37° C. In conditions where KCl was used, HG KRB was collected, and 250 μl KC1 (16.7 mM glucose, 30 mM KCl) KRB added. Islets were incubated for 20 minutes at 37° C., and supernatant collected. Following the stimulation protocol, cells were lysed in 100 μl acid ethanol (70% ethanol, 1% HCl in water) and stored at 4° C. overnight. Samples were evaporated using a SpeedVac until dried, and resuspended in 60 μl ultrapure water. DNA was quantified by Nanodrop (ThermoFisher, USA). Insulin from supernatant was quantified using insulin HTRF (Insulin Ultrasensitive Assay kit 62IN2PEH; Cisbio, USA).

This is an account of results in patent publication US20230203142A1, “TREATMENT OF METABOLIC DISORDERS THROUGH THE TARGETING OF A NOVEL CIRCULATING HORMONE COMPLEX” (The President and Fellows of Harvard College, priority 2020, published 2023).

On to IKPDGVQRGLVGEII [Peptide 2], for which the “binding with a-Ab (in words)” value in the test on CA33 (a-Ab) is listed as “Low affinity binding”.
For `Nc1ncnc2c1ncn2[C@@H]1O[C@H](COP(=O)(O)OP(=O)(O)OP(=O)(O)O)[C@@H](O)[C@H]1O` [ATP], in the test on INS1 cells [1], the “increase in GSIS with addition of NDPK-ADK” value (“increase … of NDPK-ADK” for short) is recorded as “blunted” and the “insulin secretion / GSIS with exogenous nucleotide” value is reported as “suppressed”.
Consider “NDPK: recombinant human NDPK-A (Acro Biosystems)”, for which, in the test with recombinant ADK, the “ADK activity to generate ATP” value is “no effect”.
With `Nc1ncnc2c1ncn2[C@@H]1O[C@H](COP(=O)(O)OP(=O)(O)OP(O)(O)=S)[C@@H](O)[C@H]1O` [ATPgS], in the test with INS1 cells [1], the “increase … of NDPK-ADK” value is “more pronounced”.
Take `CCc1c(-c2ccccc2)c(-c2ccccc2)nn1-c1ccccc1-c1cccc(OCC(=O)O)c1` [BMS-309403]: the “effect on suppressing NDPK-ADK-potentiated GSIS as WT recombinant FABP4” value in the test with INS1 cells [1] (FABP4 mutant or FABP4 treated with inhibitor) is “same effect”.
Consider `CSc1nc(N)c2ncn([C@H]3[C@H](O)[C@H](O)[C@]4(COP(=O)(O)OP(=O)(O)O)C[C@H]34)c2n1` [MRS2365, reference compound], for which the “extracellular calcium influx in response to glucose” value in the test on INS1 cells [2] is given as “rescued”.
On to `CNc1ncnc2c1ncn2[C@H]1C[C@H](OP(=O)(O)O)[C@@H](COP(=O)(O)O)O1` [MRS2179], for which, in the test on INS1 cells [1], the “GSIS in the presence of the NDPK-ADK/FABP4 complex” value was “no effect” and the “increase … of NDPK-ADK” value is “abolished”. Also, in the test with INS1 cells [1] (increasing concentrations of ADP), the “ADP-stimulated increase in GSIS” value is reported as “completely inhibited”.
In the case of GPVVAMVWEGLNVVK [Peptide 8], in the test on CA33 (a-Ab), the “binding with a-Ab (in words)” value is “High affinity binding”.
As to “H118N NDPK: kinase-dead H118N NDPK mutant”, the “capacity to generate ADP” value with recombinant NDPK is “no capacity”. Also, the GSIS result in the test on primary mouse islets was “no effect”.
`Nc1ncnc2c1ncn2[C@@H]1O[C@H](COP(=O)(O)OP(=O)(O)O)[C@@H](O)[C@H]1O` [ADP]: in the test with INS1 cells [1], the “GSIS in the presence of the NDPK-ADK/FABP4 complex” value was “potentiated” and the “insulin secretion / GSIS with exogenous nucleotide” value is reported as “potentiated”.
Turning to VGEIIKRFEQKGFRL [Peptide 3], the “binding with a-Ab (in words)” value in the test with CA33 (a-Ab) is given as “Low affinity binding”.
